Test results: patent publication US20100255580A1, “Differentiation of Human Embryonic Stem Cells” (LIFESCCAN, INC., priority 2007, published 2010)

Tested on: H9 embryonic stem cells
Assay type: cell-based, human
Conditions: low serum, on MEFS
Protocol: Controls for each group included cells plated on […]-coated dishes and cultured in MEF-conditioned medium or cells plated on MEFs and cultured in ES medium. All groups contained three biological replicates and each biological replicate was repeated on two separate gene chips.
Sample preparation, hybridization, and image analysis were performed according to the Affymetrix Human Genome U133 Plus 2.0 Array. Following normalization and a log transformation, data analysis was performed using OmniViz® software (MA) and […] (VizXLabs, WA). Significant differences in gene expression between the samples were evaluated using analysis of variance and an F-test with adjusted P-value (Benjamini and
Hochberg correction) of ≦b 0.05. Only genes with a present call in at least one group were included in the analysis.

Substance: Activin A: a member of the TGFβ superfamily; R&D Systems; Group 2 = Activin A (100 ng/ml)
- log intensity, bHLH factor Hes4 (LOC57801): 2.4
- log intensity, beta3GalNAcT-1 mRNA for globoside synthase, clone: type 2: −0.0984
- log intensity, bone morphogenetic protein 2 (BMP2): 5.029
- log intensity, bone morphogenetic protein 5 (BMP5): 0.6148
- log intensity, bromodomain and PHD finger containing, 3: 0.3694
- log intensity, c-mer proto-oncogene tyrosine kinase (MERTK): 3.617
- log intensity, cDNA FLJ11390 fis, clone HEMBA1000561: 0.3644
- log intensity, cDNA FLJ13221 fis, clone NT2RP4002075: 1.082
- log intensity, cDNA FLJ13392 fis, clone PLACE1001280: 1.169
- log intensity, cDNA FLJ13810 fis, clone THYRO1000279: −0.8532
- log intensity, cDNA FLJ30081 fis, clone BGGI12000693: 1.125
- log intensity, cDNA FLJ34035 fis, clone FCBBF2004788: −2.008
- log intensity, cDNA FLJ36116 fis, clone TESTI2022338: 6.155
- log intensity, cDNA: FLJ22731 fis, clone HSI15841: 2.241
- log intensity, cDNA: FLJ22808 fis, clone KAIA2925: 2.414
- log intensity, cDNA: FLJ23067 fis, clone LNG04993: 0.8825
- log intensity, calmegin (CLGN): 3.111
- log intensity, cardiac ankyrin repeat protein (CARP): 1.987
- log intensity, cartilage linking protein 1: 0.9872
- log intensity, caspase-like apoptosis regulatory protein 2 (clarp): 5.2167
- log intensity, chemokine receptor CXCR4 mRNA: 5.669
- log intensity, cleft lip and palate associated transmembrane protein 1, clone MGC: 10593: 0.5567
- log intensity, clone FLC1492 PRO3121 mRNA: −3.392
- log intensity, clone HB-2 mRNA sequence: 1.252
- log intensity, clone IMAGE: 3509274, mRNA, partial cds: 0.7945
- log intensity, clone IMAGE: 4047715, mRNA: 1.527
- log intensity, clone MGC: 14801: 1.511
- log intensity, clone MGC: 24252 IMAGE: 3932604: 1.593
- log intensity, clone TUA8 Cri-du-chat region mRNA: 1.497
- log intensity, collagen, type V, alpha 1: 1.666
- log intensity, complement component 5 (C5): 1.596
- log intensity, core histone macroH2A2.2 (MACROH2A2): 3.662
- log intensity, cystatin C (amyloid angiopathy and cerebral hemorrhage) (CST3): 3.52
- log intensity, deiodinase, iodothyronine, type III (DIO3): 4.229
- log intensity, dickkopf (Xenopus laevis) homolog 1 (DKK1): 1.09
- log intensity, dual specificity phosphatase 4, clone MGC: 3713: 5.601
- log intensity, dynein, axonemal, light polypeptide 4 (DNAL4): 1.8494
- log intensity, dystrophin (muscular dystrophy, Duchenne and Becker types) (DMD), transcript variant Dp427p2: 3.044
- log intensity, ectodermal dysplasia 1, anhidrotic (ED1): 3.078
- log intensity, elongation of very long chain fatty acids (FEN1Elo2, SUR4Elo3, yeast)-like 2 (ELOVL2): 1.508
- log intensity, endothelin receptor type A (EDNRA), mRNA: 3.552
- log intensity, endothelin receptor type A (r1027): 1.954
- log intensity, enolase 2, (gamma, neuronal) (ENO2): 3.926
- log intensity, eomesodermin (Xenopus laevis) homolog (EOMES): 4.898
- log intensity, erythrocyte membrane protein band 4.9 (dematin) (EPB49): 0.9238
- log intensity, fasciculation and elongation protein zeta 1 (zygin I) (FEZ1), transcript variant 1: 2.203
- log intensity, forkhead box F2 (FOXF2): −1.115
- log intensity, gelsolin (amyloidosis, Finnish type) (GSN): 4.45
- log intensity, glucose-6-phosphate transporter (G6PT) gene, G6PT-Dt allele: 0.4077
- log intensity, glutathione S-transferase A2 (GSTA2): −0.4221
- log intensity, glycoprotein M6A: 2.3278
- log intensity, guanylate cyclase activator 1B (retina) (GUCA1B): 0.685
- log intensity, heparan sulfate proteoglycan 2 (perlecan): −0.9721
- log intensity, hexabrachion (tenascin C, cytotactin) (HXB): 2.854
- log intensity, high mobility group protein-R: 0.09529
- log intensity, hypothetical protein BC017868 (LOC159091): 0.4016
- log intensity, hypothetical protein DKFZp434F0318: 0.3947
- log intensity, hypothetical protein DKFZp434F2322: 1.421
- log intensity, hypothetical protein DKFZp564B052: 2.003
- log intensity, hypothetical protein FLJ10312: 4.892
- log intensity, hypothetical protein FLJ11155: −0.7126
- log intensity, hypothetical protein FLJ11560: 1.807
- log intensity, hypothetical protein FLJ12538 similar to ras-related protein RAB17: 4.734
- log intensity, hypothetical protein FLJ12666 (r758): 1.405
- log intensity, hypothetical protein FLJ12666 (r998): 4.028
- log intensity, hypothetical protein FLJ12838: 3.152
- log intensity, hypothetical protein FLJ21195 similar to protein related to DAC and cerberus: 0.764
- log intensity, hypothetical protein FLJ22471: 3.1349
- log intensity, hypothetical protein FLJ23091: 3.042
- log intensity, hypothetical protein FLJ23514: 5.247
- log intensity, hypothetical protein FLJ32835: 3.947
- log intensity, hypothetical protein MGC2865, clone MGC: 20246: −1.506
- log intensity, insulin-like growth factor binding protein 6 (IGFBP6): 3.304
- log intensity, keratin 19 (KRT19): 5.919
- log intensity, kidney-specific membrane protein NX-17: 3.45
- log intensity, lipase mRNA: 0.5585
- log intensity, lymphocyte antigen 6 complex, locus E (LY6E): 4.926
- log intensity, mRNA for KIAA0876 protein: 0.07325
- log intensity, mRNA for KIAA1161 protein: 1.981
- log intensity, mRNA for MSX-2: 1.945
- log intensity, mRNA for protein-tyrosine kinase: 1.042
- log intensity, mRNA; cDNA DKFZp434E082: 2.943
- log intensity, mRNA; cDNA DKFZp434K0621: 2.214
- log intensity, mRNA; cDNA DKFZp434P228: 3.113
- log intensity, mRNA; cDNA DKFZp547H236: 2.081
- log intensity, mRNA; cDNA DKFZp564K1672: 6.335
- log intensity, mRNA; cDNA DKFZp586G2120: 0.523
- log intensity, mRNA; cDNA DKFZp586L0120: 1.28
- log intensity, mRNA; cDNA DKFZp762H185: 3.792
- log intensity, mandaselin long form: 1.2296
- log intensity, matrix metalloproteinase 15 (membrane-inserted) (MMP15): 1.8336
- log intensity, microseminoprotein, beta-(MSMB): 0.1699
- log intensity, mitogen-activated protein kinase 10 (MAPK10): 2.286
- log intensity, nuclear factor of kappa light polypeptide gene enhancer in B-cells inhibitor, alpha: 5.478
- log intensity, nuclear receptor subfamily 0, group B, member 1 (NR0B1) (r534): 1.279
- log intensity, nuclear receptor subfamily 0, group B, member 1 (NR0B1) (r1079): 3.298
- log intensity, nudix (nucleoside diphosphate linked moiety X)-type motif 4: 5.689
- log intensity, olfactory receptor, family 52, subfamily A, member 1 (OR52A1): 0.6365
- log intensity, oxoglutarate dehydrogenase (lipoamide) (OGDH): −0.3853
- log intensity, partial LHX9 gene for LIM-homeobox 9, 3UTR: −0.1342
- log intensity, partial mRNA for putative nuclear factor: 2.679
- log intensity, phosphatidylinositol-4-phosphate 5-kinase, type I, beta (PIP5K1B): 2.467
- log intensity, phosphofructokinase, liver (PFKL): 2.704
- log intensity, pilin-like transcription factor (PILB): 4.382
- log intensity, pleiomorphic adenoma gene-like 1: 0.2215
- log intensity, plexin A2: 2.742
- log intensity, polycythemia rubra vera 1; cell surface receptor (PRV1): 0.9374
- log intensity, porcupine (MG61): 3.681
- log intensity, protease, serine, 4 (trypsin 4, brain): 3.359
- log intensity, protein S (alpha) (PROS1): 1.7883
- log intensity, protocadherin 10: 2.986
- log intensity, putative 47 kDa protein (r448): 1.052
- log intensity, putative 47 kDa protein (r770): 0.8617
- log intensity, putative sterol reductase SR-1 (TM7SF2): 2.478
- log intensity, ras homolog gene family, member B: 0.07189
- log intensity, receptor tyrosine kinase-like orphan receptor 2 (ROR2): 3.056
- log intensity, regulator of G protein signalling 5 (RGS5): 3.951
- log intensity, ret finger protein-like 2 (RFPL2): 0.5039
- log intensity, secreted apoptosis related protein 2 (SARP2): 5.743
- log intensity, secreted frizzled-related protein 1: 4.218
- log intensity, sialyltransferase (STHM): 1.503
- log intensity, signal transducer and activator of transcription 3 (acute-phase response factor): 0.5602
- log intensity, singed (Drosophila)-like (sea urchin fascin homolog like) (SNL): 5.254
- log intensity, sodium dependent phosphate transporter isoform NaPi-IIb: 0.232
- log intensity, solute carrier (SLC25A18): −1.1
- log intensity, solute carrier family 9 (sodiumhydrogen exchanger), isoform 5 (SLC9A5): 1.196
- log intensity, stanniocalcin 1 (STC1), mRNA: 5.28
- log intensity, stanniocalcin 1 (r1113): 5.701
- log intensity, testican 3 (HSAJ1454): 1.551
- log intensity, testis enhanced gene transcript (BAX inhibitor 1): 1.317
- log intensity, thyrotropin-releasing hormone (TRH): −0.2584
- log intensity, transcription factor 2, hepatic; LF-B3; variant hepatic nuclear factor (TCF2), transcript variant a: 2.543
- log intensity, transcriptional activator of the c-fos promoter (CROC4): 3.225
- log intensity, transmembrane tyrosine kinase mRNA: 1.932
- log intensity, tropomodulin, clone MGC: 3643: 1.464
- log intensity, tryptase, alpha: 3.764
- log intensity, tudor repeat associator with PCTAIRE 2: 3.275
- log intensity, tyrosine 3-monooxygenasetryptophan 5-monooxygenase activation protein, eta polypeptide (r705): 4.608
- log intensity, tyrosine 3-monooxygenasetryptophan 5-monooxygenase activation protein, eta polypeptide (r966): 4.926
